# Laboratory results taken from patent US5225543A, “Receptors method for purification of G protein-linked” (priority 1991, dated 1993).
# Tests used:
# [1] = target: T1, SRIF receptor (GH4 C1 membranes) (Rattus norvegicus, UniProt P30680); experiment: Competitive radioligand binding vs [^125 I]Tyr11-S14 on GH4 C1 membranes (FIG. 4); details: vs [^125 I]Tyr11-S14; 20 ug GH4 C1 membrane protein, 100,000 cpm (FIG. 4B)
# T1 construct: GH4 C1 rat pituitary tumor cells; endogenous in cells; host or cells: GH4 C1 rat pituitary tumor cells (isolated membranes)
# Protocol: Membrane Isolation--1-8 liter batches of cells at densities of 6-10×10^5 cells/ml are pelleted in conical bottom glass centrifuge bottles (600 or 800 ml; Bellco) at 1,000× g for 5 min. The supernatants are carefully poured off and the cells are resuspended in ice cold homogenization medium (1 mM Na-bicarbonate at pH 7.6, 1 mM EDTA and 1 mM EGTA) containing 0.7% (vol/vol) of the "100×4pase" protease inhibitor cocktail (see below). Twenty ml of homogenization medium is used for every liter of suspension culture. After 5 min. on ice, the hypotonically swollen cells are homogenized with 10 strokes of a tight fitting Dounce homogenizer (Kontes, type A pestle). The homogenate is centrifuged at 1,000× g for 10 min. and the supernatant is removed and kept on ice. The 1,000× g pellet containing residual intact cells, nuclei and DNA is washed by gently homogenizing with 4 strokes with a type B pestle in one half the original volume of homogenization medium and recentrifuging for 10 min. at 1,000× g. The final 1,000× g pellet consists mostly of DNA and is discarded. The 1,000× g supernatants are combined and centrifuged at 20,000× g for 30 min. The 20,000× g pellet is washed twice in 25 mM Tris (pH 7.4), with centrifugation for 25 min. at 20,000 2 g. Final membrane pellets are resuspended in 25 mM Tris buffer to concentrations of 4-10 mg membrane protein/ml. Then the 100× 4pase protease inhibitor cocktails are added to 1% of final volume and aliquots are frozen on dry ice. Membranes are stored at -90° C. until needed. Membrane protein is assayed with the Bradford dye binding assay (Bio-Rad).
# Standard Binding Assays--Binding assays are done in a binding buffer containing 50 mM HEPES (pH 7.4), 0.5% BSA and 5 mM MgCl2. The standard assay for [^125 I]SRIF analog binding to GH4 CL membranes, done in 96 well microtiter plates (Dynatech Immulon II Removawell plates), is carried out as follows: 1. Radioligand is diluted in binding buffer+PMSF/Baci to the desired cpm per vol. of 50 μl and then 50 μl aliquots are added to the wells. For non-specific binding samples, 5 μl of 40 μM cold S14 is also added per well. […] Binding is initiated by adding 150 μl per well of membrane diluted to the desired concentration (10-30 ug membrane protein/well) in binding buffer+PMSF/Baci. Plates are then covered with Linbro mylar plate sealers (Flow Labs) and placed on a Dynatech Microshaker II and binding is allowed to proceed at room temperature for 1-2 hours. Binding is stopped by centrifuging the plate for 15 minutes at 2,000×g. The supernatants are dumped off and membrane pellets washed once by addition of 200 μl of ice cold binding buffer, brief shaking and recentrifugation. Finally the individual wells are placed in 12×75 mm tubes and counted in an LKB Gammamaster counter (78% efficiency). […]
# [2] = target: T1, SRIF receptor (GH4 C1 membranes); experiment: Purification method as receptor assay: binding of biotinyl-S28 to GH4 C1 membranes (FIG. 10); details: 10 nM B28 in binding step
# Protocol: Soluble material is adsorbed to streptavidin-Sepharose for 4 hours and eluted with 100 uM GTP-gamma-S+100 uM EDTA+100 uM EGTA. Then the GTP-gamma-S eluates are incubated overnight with immobilized wheat germ agglutinin (to adsorb glycoproteins, including the receptor).
# The WGA-agarose pellets are washed and then boiled in SDS polyacrylamide gel sample buffer (to melt the agarose and solubilize proteins). […] The proteins not bound to WGA are processed separately and also separated by SDS-PAGE (FIG. 10C).
# [3] = target: T1, SRIF receptor (GH4 C1 membranes); experiment: Tracing of SRIF R:L complex with [^125 I]Bio-S28 during purification: membrane binding and solubilization (Table 4)
# Protocol: 1. Binding of biotinyl-SRIF to GH4 C1 membranes. The binding step is carried out as described in Section 4 of "Receptor Binding Methods". Incubations are for 1 hour at room temperature. In the standard purification protocol, the binding incubations contain 10 nM […]/[^125 I]Bio-S28 is added as a tracer at levels of 5,000-100,000 cpm per mg of membrane protein. Control incubations contain 10 uM cold S14 to saturate the receptor with non-biotinylated ligand.
# 2. Solubilization of receptor:ligand complex. This is done as described ("Membrane Solubilization"), with 0.15% deoxycholate:lysolecithin in solubilization buffer containing 0.2 mM MgCl2, to obtain 100,000×g supernatants containing solubilized R:L complex.
# (§1) A preparation of SRIF receptor is purified from 17 mg GH4 C1 pituitary cell membranes as described in "Methods: Receptor Purification". Some important features of this experiment are as follows: Two 17 mg samples of membranes are used. Both are incubated with 10^-8 M Bio-S28. However, one sample also receives 10^-5 M non-biotinyl S14 for 23 minutes before addition of any Bio-S28. This serves to block binding of Bio-S28 and creates a control to show non-specific binding of proteins to the streptavidin column. Also, each sample received 1.5×10^8 cpm of [^125 I]Bio-S28 as a tracer. This is added 2-3 minutes before the addition of cold Bio-S28. After a 1-hour binding step, the membranes are washed in binding buffer without BSA and solubilized in solubilization buffer containing 0.15% deoxycholate:lysolecithin and 0.2 mM MgCl2. Each 100,000×g supernatant (17 ml) is incubated with 0.6 ml of streptavidin-agarose for 4 hours at 4°-10° C. The SA-agarose is transferred to a 0.7 cm diameter column, washed and eluted with EDTA/EGTA/GTP-gamma-S as described ("Methods: Receptor Purification").
# (§2) Radioligand is followed through the procedure to estimate solubilization of R:L complex and % initial binding of R:L complex to immobilized streptavidin.
# streptavidin = target: T2, streptavidin (Streptomyces avidinii, UniProt P22629); experiment: Tracing of SRIF R:L complex with [^125 I]Bio-S28 during purification: binding to immobilized streptavidin (Table 4)
# T2 construct: purchased Pierce Chemical Co
# Protocol: 3. Adsorption of solubilized R:L complex to streptavidin. Immobilized streptavidin (streptavidin cross-linked to 6% beaded agarose, Pierce Chemical Co.; "SA-agarose") is washed in solubilization buffer and added to the solubilized membranes as 1/30 of the final volume. This mixture is incubated with constant stirring by end-over-end rotation for 4-5 hours at 4°-10° C. Then the mixture is applied to a column and the non-bound material is washed through. Binding of radioligand to SA-agarose is determined by comparing cpm in the 100,000×g supernatant with that in the column effluent after adsorption to SA-agarose. Finally, the column is washed with 12-15 column volumes of solubilization buffer+0.15% deoxycholate:lysolecithin+1/500 (vol/vol) 100×4pase.
# as §1, §2
# [4] = 10^-8 M Bio-S28 + 10^-5 M S14 (NSB)
# [5] = 10^-8 M Bio-S28, [^125 I]Bio-S28 tracer
# [6] = 10^-8 M Bio-S28, [^125 I]Bio-S28 tracer, 4 hours
# T2 sequence (P22629 25-183): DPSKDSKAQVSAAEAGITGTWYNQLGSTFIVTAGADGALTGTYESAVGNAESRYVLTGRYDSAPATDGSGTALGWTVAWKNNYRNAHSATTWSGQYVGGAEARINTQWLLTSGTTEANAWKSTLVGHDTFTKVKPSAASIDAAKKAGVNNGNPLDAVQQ
# T1 sequence (P30680 whole entry): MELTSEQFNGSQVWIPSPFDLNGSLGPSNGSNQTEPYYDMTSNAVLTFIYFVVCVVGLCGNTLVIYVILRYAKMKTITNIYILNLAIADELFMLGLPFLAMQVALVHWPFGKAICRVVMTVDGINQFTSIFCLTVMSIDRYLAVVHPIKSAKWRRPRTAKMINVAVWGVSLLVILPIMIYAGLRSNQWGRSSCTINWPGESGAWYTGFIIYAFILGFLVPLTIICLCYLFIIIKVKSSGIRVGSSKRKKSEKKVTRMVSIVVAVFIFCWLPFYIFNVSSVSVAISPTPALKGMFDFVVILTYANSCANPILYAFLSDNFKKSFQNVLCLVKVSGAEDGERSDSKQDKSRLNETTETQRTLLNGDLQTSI
substance,measurement,setting,value
"Biotinyl-NH-(Leu8, D-Trp22, Tyr25)SRIF28 [Bio-S28]",IC50,[1],0.3 nM
same,total specific binding at or near saturation,[2],1.8 pmol
same,CPM initially bound to membranes (NSB),[3]; [4],"9,316 CPM"
same,CPM solubilized by deoxycholate:lysolecithin (%) (NSB),[3]; [4],73%
same,CPM solubilized by deoxycholate:lysolecithin (NSB),[3]; [4],"6,834 CPM"
same,CPM initially bound to membranes,[3]; [5],"59,132 CPM"
same,CPM solubilized by deoxycholate:lysolecithin,[3]; [5],"54,094 CPM"
same,CPM solubilized by deoxycholate:lysolecithin (%),[3]; [5],91%
same,Solubilized CPM non-bound to streptavidin (%) (NSB),streptavidin; [4],15%
same,Solubilized CPM non-bound to streptavidin (NSB),streptavidin; [4],"1,054 CPM"
same,Solubilized CPM non-bound to streptavidin,streptavidin; [6],"14,960 CPM"
same,Solubilized CPM non-bound to streptavidin (%),streptavidin; [6],28%
